Measurements from ChEMBL document CHEMBL1806399, “Synthesis and SAR of new pyrazolo[4,3-h]quinazoline-3-carboxamide derivatives as potent and selective MPS1 kinase inhibitors” (Bioorg Med Chem Lett, 2011).
Converted amounts (≈) assume the structure as drawn.

Tests used:
U2OS = assay: Inhibition of mitosis in human U2OS cells assessed as histone H3 phosphorylation at Ser 10 residue after 2 hrs by immunoassay; assay type: functional, cell-based
Aurora kinase A = molecular target: T1, Aurora kinase A (Homo sapiens, UniProt O14965); assay: Inhibition of Aur-A assessed as [33P]-gamma-ATP incorporation into substrate by gamma counting
T1 sequence (O14965 whole entry): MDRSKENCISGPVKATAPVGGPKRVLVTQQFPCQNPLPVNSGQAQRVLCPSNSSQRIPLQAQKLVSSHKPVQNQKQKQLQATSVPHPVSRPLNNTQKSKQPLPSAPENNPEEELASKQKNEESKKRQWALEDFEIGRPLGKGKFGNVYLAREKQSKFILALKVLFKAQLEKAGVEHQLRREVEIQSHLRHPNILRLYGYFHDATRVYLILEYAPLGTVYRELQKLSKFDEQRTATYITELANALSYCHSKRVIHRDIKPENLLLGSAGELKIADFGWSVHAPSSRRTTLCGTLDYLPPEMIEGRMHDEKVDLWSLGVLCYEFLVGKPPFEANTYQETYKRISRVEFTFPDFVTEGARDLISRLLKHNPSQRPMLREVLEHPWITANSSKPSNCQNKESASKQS

A2780 = assay: Antiproliferative activity in human A2780 cells after 72 hrs by CellTiter-Glo assay; assay type: functional, cell-based; details: A2780, 72 h
[1] = molecular target: Cyclin-dependent kinase 2/cyclin A (Homo sapiens, UniProt P24941); assay: Inhibition of CDK2/Cyclin A assessed as [33P]-gamma-ATP incorporation into substrate by gamma counting; assay type: protein-complex assay
[2] = Solubility of the compound at pH 7; assay type: physicochemical; details: buffer
[3] = molecular target: T2, Dual specificity protein kinase TTK (Homo sapiens, UniProt P33981); assay: Inhibition of MPS1 assessed as [33P]-gamma-ATP incorporation into substrate P38-betatide by gamma counting
T2 sequence (P33981 whole entry): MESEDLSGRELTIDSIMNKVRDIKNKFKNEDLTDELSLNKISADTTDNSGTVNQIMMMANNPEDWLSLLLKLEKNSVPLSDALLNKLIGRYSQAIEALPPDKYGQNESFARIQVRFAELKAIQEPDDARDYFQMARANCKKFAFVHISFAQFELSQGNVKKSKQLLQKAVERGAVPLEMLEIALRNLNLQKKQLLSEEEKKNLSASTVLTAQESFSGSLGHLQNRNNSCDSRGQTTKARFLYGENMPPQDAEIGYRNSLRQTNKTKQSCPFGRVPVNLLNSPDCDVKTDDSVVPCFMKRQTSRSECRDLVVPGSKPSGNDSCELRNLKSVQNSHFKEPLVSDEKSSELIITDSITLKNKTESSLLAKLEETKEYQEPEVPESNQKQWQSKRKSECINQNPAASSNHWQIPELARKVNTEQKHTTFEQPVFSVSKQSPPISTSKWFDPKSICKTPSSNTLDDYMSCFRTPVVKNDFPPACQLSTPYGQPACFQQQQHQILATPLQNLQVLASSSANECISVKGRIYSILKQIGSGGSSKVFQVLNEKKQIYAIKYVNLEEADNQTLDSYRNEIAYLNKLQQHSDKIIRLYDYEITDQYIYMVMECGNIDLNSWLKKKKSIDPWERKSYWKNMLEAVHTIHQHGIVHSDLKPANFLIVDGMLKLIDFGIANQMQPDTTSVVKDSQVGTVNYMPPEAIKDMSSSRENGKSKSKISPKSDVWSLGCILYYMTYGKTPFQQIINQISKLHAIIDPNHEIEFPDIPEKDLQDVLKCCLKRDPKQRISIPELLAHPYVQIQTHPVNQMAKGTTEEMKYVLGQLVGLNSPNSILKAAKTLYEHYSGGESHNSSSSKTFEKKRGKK

[4] = molecular target: Serine/threonine-protein kinase PLK1 (Homo sapiens, UniProt P53350); assay: Inhibition of PLK1 assessed as [33P]-gamma-ATP incorporation into substrate by gamma counting
[5] = Half life in mouse at 10 mg/kg, iv; assay type: ADME, organism-based; design: dose 10 mg/kg, route intravenous; details: in vivo
[6] = Oral bioavailability in mouse at 10 mg/kg; assay type: ADME, organism-based; details: in vivo
[7] = Half life in mouse at 10 mg/kg, po; assay type: ADME, organism-based; design: dose 10 mg/kg, route oral; details: in vivo
[8] = Volume of distribution at steady state in mouse at 10 mg/kg, iv; assay type: ADME, organism-based; design: dose 10 mg/kg, route intravenous; details: in vivo, read-out: Vdss
[9] = AUC in mouse at 10 mg/kg, iv; assay type: ADME, organism-based; design: dose 10 mg/kg, route intravenous; details: plasma
[10] = Cmax in mouse at 10 mg/kg, po; assay type: ADME, organism-based; design: dose 10 mg/kg, route oral; details: in vivo
[11] = AUC in mouse at 10 mg/kg, po; assay type: ADME, organism-based; design: dose 10 mg/kg, route oral; details: plasma
[12] = Clearance in mouse at 10 mg/kg, iv; assay type: ADME, organism-based; design: dose 10 mg/kg, route intravenous; details: in vivo
Mus musculus [13] = assay: Antitumor activity against human A2780 cells xenografted in mouse assessed as tumor growth inhibition at 90 mg/kg, po for seven consecutive days; assay type: functional; details: read-out: GI
Mus musculus [14] = assay: Toxicity in mouse assessed as body weight loss at 90 mg/kg, po for seven consecutive days; assay type: organism-based; design: dose 90 mg/kg, route oral; details: in vivo

Chain of Serine/threonine-protein kinase PLK1 (P53350 whole entry): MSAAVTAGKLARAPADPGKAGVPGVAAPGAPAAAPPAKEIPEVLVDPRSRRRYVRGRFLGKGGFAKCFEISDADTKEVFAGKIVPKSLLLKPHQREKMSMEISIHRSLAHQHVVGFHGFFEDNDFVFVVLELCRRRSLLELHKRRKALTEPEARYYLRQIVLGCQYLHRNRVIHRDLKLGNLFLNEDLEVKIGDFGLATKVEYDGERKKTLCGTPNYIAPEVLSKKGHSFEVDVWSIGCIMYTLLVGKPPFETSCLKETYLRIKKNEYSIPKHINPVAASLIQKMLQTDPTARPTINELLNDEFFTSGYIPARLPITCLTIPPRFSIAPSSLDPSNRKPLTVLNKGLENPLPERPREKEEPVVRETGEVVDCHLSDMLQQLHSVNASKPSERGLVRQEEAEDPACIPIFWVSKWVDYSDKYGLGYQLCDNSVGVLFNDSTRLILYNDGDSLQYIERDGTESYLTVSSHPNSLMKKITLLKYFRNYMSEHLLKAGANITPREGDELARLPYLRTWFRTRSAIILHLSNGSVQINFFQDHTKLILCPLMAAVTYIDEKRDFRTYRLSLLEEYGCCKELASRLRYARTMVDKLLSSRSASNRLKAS

CCc1cccc(CC)c1NC(=O)c1nn(C)c2c1CCc1cnc(Nc3ccc(C(=O)N4CCC[C@H]4CN4CCCC4)cc3OC(F)(F)F)nc1-2
IC50 (U2OS): 260 nM | IC50 (Aurora kinase A): > 10000 nM | IC50 (A2780): 407 nM | IC50 [1]: > 10000 nM | solubility [2]: 69 µM (≈ 49.5 µg/mL) | IC50 [3]: 202 nM | IC50 [4]: > 10000 nM

CCc1cccc(CC)c1NC(=O)c1nn(C)c2c1CCc1cnc(Nc3ccc(C(=O)NC4CCN(C)CC4)cc3OC)nc1-2
IC50 (U2OS): 16 nM | IC50 (Aurora kinase A): 1450 nM | IC50 (A2780): 150 nM | IC50 [1]: > 10000 nM | solubility [2]: 3 µM (≈ 1.87 µg/mL) | IC50 [3]: 84 nM | IC50 [4]: 237 nM

CCc1cccc(CC)c1NC(=O)c1nn(C)c2c1CCc1cnc(Nc3ccccc3)nc1-2
IC50 (Aurora kinase A): 152 nM | IC50 [1]: > 10000 nM | IC50 [3]: 530 nM | IC50 [4]: > 10000 nM

CCc1cccc(CC)c1NC(=O)c1nn(C)c2c1CCc1cnc(Nc3ccc(C(=O)N4CCC(N(C)C)CC4)cc3OC(F)(F)F)nc1-2
IC50 (U2OS): 40 nM | IC50 (Aurora kinase A): > 10000 nM | IC50 (A2780): 485 nM | IC50 [1]: > 10000 nM | solubility [2]: 70 µM (≈ 48.4 µg/mL) | IC50 [3]: 206 nM | IC50 [4]: > 10000 nM

CCc1cccc(CC)c1NC(=O)c1nn(C)c2c1CCc1cnc(Nc3ccc(C(=O)N4CCCN(C)CC4)cc3OC(F)(F)F)nc1-2
IC50 (U2OS): 32 nM | half-life [5]: 1.61 h | bioavailability [6]: 22.4% | half-life [7]: 2.92 h | Vd [8]: 8.41 L/kg | IC50 (Aurora kinase A): > 10000 nM | AUC [9]: 2.9 µM·h | Cmax [10]: 245 nM | IC50 (A2780): 244 nM | IC50 [1]: > 10000 nM | solubility [2]: 46 µM (≈ 31.1 µg/mL) | AUC [11]: 0.64 µM·h | clearance [12]: 77.5 mL/min/kg | IC50 [3]: 146 nM | IC50 [4]: > 10000 nM

Cn1nc(C(=O)NCc2ccccc2)c2c1-c1nc(Nc3ccccc3)ncc1CC2
IC50 [3]: > 11000 nM | IC50 [4]: > 10000 nM

CCc1cccc(CC)c1NC(=O)c1nn(C)c2c1CCc1cnc(Nc3ccc(C(N)=O)cc3OC(F)(F)F)nc1-2
IC50 (U2OS): 160 nM | IC50 (Aurora kinase A): > 10000 nM | IC50 (A2780): 298 nM | IC50 [1]: > 10000 nM | solubility [2]: 1 µM (≈ 0.58 µg/mL) | IC50 [3]: 140 nM | IC50 [4]: > 10000 nM

CCc1cccc(CC)c1NC(=O)c1nn(C)c2c1CCc1cnc(Nc3ccc(C(N)=O)cc3OC)nc1-2
IC50 (U2OS): 4 nM | IC50 (Aurora kinase A): 768 nM | IC50 (A2780): 135 nM | IC50 [1]: 5570 nM | solubility [2]: < 1 µM | IC50 [3]: 36 nM | IC50 [4]: 3030 nM

Cn1nc(C(=O)NCCc2ccccc2)c2c1-c1nc(Nc3ccccc3)ncc1CC2
IC50 (Aurora kinase A): 677 nM | IC50 [1]: 697 nM | IC50 [3]: > 12000 nM | IC50 [4]: > 10000 nM

CCc1cccc(CC)c1NC(=O)c1nn(C)c2c1CCc1cnc(Nc3ccc(C(=O)NCCN(C)C)cc3OC(F)(F)F)nc1-2
IC50 (U2OS): 110 nM | IC50 (Aurora kinase A): 1380 nM | IC50 (A2780): 771 nM | IC50 [1]: > 10000 nM | solubility [2]: 27 µM (≈ 17.6 µg/mL) | IC50 [3]: 130 nM | IC50 [4]: > 10000 nM

CCc1cccc(CC)c1NC(=O)c1nn(C)c2c1CCc1cnc(Nc3ccccc3OC(F)(F)F)nc1-2
IC50 (Aurora kinase A): > 10000 nM | IC50 (A2780): 2860 nM | IC50 [1]: > 10000 nM | solubility [2]: < 1 µM | IC50 [3]: 823 nM | IC50 [4]: > 10000 nM

CCc1cccc(CC)c1NC(=O)c1nn(C)c2c1CCc1cnc(Nc3ccc(C(=O)N4CCC[C@@H]4CN4CCCC4)cc3OC(F)(F)F)nc1-2
IC50 (U2OS): 210 nM | IC50 (Aurora kinase A): > 10000 nM | IC50 (A2780): 422 nM | IC50 [1]: > 10000 nM | solubility [2]: 65 µM (≈ 46.6 µg/mL) | IC50 [3]: 391 nM | IC50 [4]: > 10000 nM

CCc1cccc(CC)c1NC(=O)c1nn(C)c2c1CCc1cnc(Nc3ccc(C(=O)N4CCC[C@H]4CN4CCCC4)cc3OC)nc1-2
IC50 (U2OS): 13 nM | IC50 (Aurora kinase A): 491 nM | IC50 (A2780): 73 nM | IC50 [1]: > 10000 nM | solubility [2]: 96 µM (≈ 63.6 µg/mL) | IC50 [3]: 72 nM | IC50 [4]: > 10000 nM

COc1ccccc1Nc1ncc2c(n1)-c1c(c(C(N)=O)nn1C)CC2
IC50 [3]: 66 nM

CCc1cccc(CC)c1NC(=O)c1nn(C)c2c1CCc1cnc(Nc3ccccc3OC)nc1-2
IC50 (Aurora kinase A): 3170 nM | IC50 (A2780): 541 nM | IC50 [1]: > 10000 nM | solubility [2]: < 1 µM | IC50 [3]: 525 nM | IC50 [4]: > 10000 nM

CCc1cccc(CC)c1NC(=O)c1nn(C)c2c1CCc1cnc(Nc3ccc(C(=O)N4CCC[C@@H]4CN4CCCC4)cc3OC)nc1-2
IC50 (U2OS): 11 nM | IC50 (Aurora kinase A): 1380 nM | IC50 (A2780): 83 nM | IC50 [1]: > 10000 nM | solubility [2]: 110 µM (≈ 72.9 µg/mL) | IC50 [3]: 103 nM | IC50 [4]: > 10000 nM

CNC(=O)c1nn(C)c2c1CCc1cnc(Nc3ccccc3)nc1-2
IC50 [3]: 2170 nM

CCc1cccc(CC)c1NC(=O)c1nn(C)c2c1CCc1cnc(Nc3ccc(C(=O)NC4CCN(C)CC4)cc3OC(F)(F)F)nc1-2
IC50 (U2OS): 32 nM | inhibition in vivo at 90 mg/kg (Mus musculus [13]): 53% | IC50 (A2780): 1000 nM | solubility [2]: 45 µM (≈ 30.5 µg/mL) | Activity (Mus musculus [14]): Non-toxic | IC50 [4]: > 10000 nM

Cc1ccccc1Nc1ncc2c(n1)-c1c(c(C(N)=O)nn1C)CC2
IC50 [3]: 241 nM

CCc1cccc(CC)c1NC(=O)c1nn(C)c2c1CCc1cnc(Nc3ccc(C(=O)NCCN(C)C)cc3OC)nc1-2
IC50 (U2OS): 12 nM | IC50 (Aurora kinase A): 750 nM | IC50 (A2780): 101 nM | IC50 [1]: > 10000 nM | solubility [2]: 44 µM (≈ 26.3 µg/mL) | IC50 [3]: 33 nM | IC50 [4]: 1650 nM

CCc1cccc(CC)c1NC(=O)c1nn(C)c2c1CCc1cnc(Nc3ccc(C(=O)N4CCCN(C)CC4)cc3OC)nc1-2
IC50 (U2OS): 2 nM | IC50 (Aurora kinase A): 372 nM | IC50 (A2780): < 16 nM | IC50 [1]: 3620 nM | solubility [2]: 59 µM (≈ 36.7 µg/mL) | IC50 [3]: 21 nM | IC50 [4]: > 10000 nM

CCc1cccc(CC)c1NC(=O)c1nn(C)c2c1CCc1cnc(Nc3ccc(C(=O)N4CCC(N(C)C)CC4)cc3OC)nc1-2
IC50 (U2OS): 2 nM | IC50 (Aurora kinase A): 484 nM | IC50 (A2780): 83 nM | IC50 [1]: > 10000 nM | solubility [2]: 116 µM (≈ 73.9 µg/mL) | IC50 [3]: 19 nM | IC50 [4]: > 10000 nM

Cn1nc(C(N)=O)c2c1-c1nc(Nc3ccccc3OC(F)(F)F)ncc1CC2
IC50 (Aurora kinase A): > 10000 nM | IC50 [1]: > 10000 nM | IC50 [3]: 1220 nM
